Assay results: PubChem BioAssay (NCI)
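GI50: concentration for 50% inhibition of growth. At the TGI there is no net growth.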

Tests used:
Assay in all cases: inhibition of tumour cell growth, NCI panel, 384-well format
HOP-92 NSCLC = tested on: HOP-92 NSCLC
PC-3 prostate = tested on: PC-3 prostate
SN12C renal = tested on: SN12C renal
NCI-H23 lung = tested on: NCI-H23 lung
NCI-H522 lung = tested on: NCI-H522 lung
HL-60(TB) leukemia = tested on: HL-60(TB) leukemia
LOX IMVI melanoma = tested on: LOX IMVI melanoma
U251 glioblastoma = tested on: U251 glioblastoma
RXF 393 renal = tested on: RXF 393 renal
SR leukemia = tested on: SR leukemia
786-0 renal = tested on: 786-0 renal
SF-539 CNS = tested on: SF-539 CNS
A549 NSCLC = tested on: A549 NSCLC
MCF7 breast = tested on: MCF7 breast
SNB-19 CNS = tested on: SNB-19 CNS
IGROV1 ovarian = tested on: IGROV1 ovarian
SNB-75 CNS = tested on: SNB-75 CNS
A498 renal = tested on: A498 renal
HS 578T breast = tested on: HS 578T breast
SF-268 CNS = tested on: SF-268 CNS
NCI-H226 lung = tested on: NCI-H226 lung
CCRF-CEM leukemia = tested on: CCRF-CEM leukemia
MALME-3M melanoma = tested on: MALME-3M melanoma
SK-OV-3 ovarian = tested on: SK-OV-3 ovarian
HCC-2998 colon = tested on: HCC-2998 colon
OVCAR-5 ovarian = tested on: OVCAR-5 ovarian
K-562 leukemia = tested on: K-562 leukemia
SF-295 CNS = tested on: SF-295 CNS
RPMI-8226 leukemia = tested on: RPMI-8226 leukemia
UACC-62 melanoma = tested on: UACC-62 melanoma
SK-MEL-2 melanoma = tested on: SK-MEL-2 melanoma
BT-549 breast = tested on: BT-549 breast
MDA-MB-468 breast = tested on: MDA-MB-468 breast
HOP-62 NSCLC = tested on: HOP-62 NSCLC
MDA-MB-435 melanoma = tested on: MDA-MB-435 melanoma
CAKI-1 renal = tested on: CAKI-1 renal
NCI-H322M lung = tested on: NCI-H322M lung
HT29 colon = tested on: HT29 colon
HCT-116 colon = tested on: HCT-116 colon
COLO 205 colon = tested on: COLO 205 colon
OVCAR-4 ovarian = tested on: OVCAR-4 ovarian
NCI-H460 NSCLC = tested on: NCI-H460 NSCLC
TK-10 renal = tested on: TK-10 renal
MOLT-4 leukemia = tested on: MOLT-4 leukemia
UO-31 renal = tested on: UO-31 renal
SK-MEL-28 melanoma = tested on: SK-MEL-28 melanoma
HCT-15 colon = tested on: HCT-15 colon
ACHN renal = tested on: ACHN renal
EKVX NSCLC = tested on: EKVX NSCLC
SK-MEL-5 melanoma = tested on: SK-MEL-5 melanoma
KM12 colon = tested on: KM12 colon
NCI/ADR-RES ovarian = tested on: NCI/ADR-RES ovarian
OVCAR-3 ovarian = tested on: OVCAR-3 ovarian
DU-145 prostate = tested on: DU-145 prostate
MDA-MB-231 breast = tested on: MDA-MB-231 breast

`O=C1NC(=O)[C@@H](c2cn3c4c(cccc24)CCC3)[C@@H]1c1c[nH]c2ccccc12` was tested, and the GI50 (HOP-92 NSCLC) was 0.41 µM, the TGI (HOP-92 NSCLC) was 10.7 µM and the GI50 (PC-3 prostate) was 0.145 µM. The TGI (PC-3 prostate) was 8.34 µM, the GI50 (SN12C renal) was 0.401 µM and the TGI (SN12C renal) was 12.7 µM. For the same compound, the GI50 (NCI-H23 lung) was 0.269 µM, the TGI (NCI-H23 lung) was 6.96 µM and the GI50 (NCI-H522 lung) was 0.0132 µM. For the same compound, the TGI (NCI-H522 lung) was 0.0937 µM, the GI50 (HL-60(TB) leukemia) was 0.124 µM and the TGI (HL-60(TB) leukemia) was 0.252 µM. The GI50 (LOX IMVI melanoma) was 0.453 µM, the TGI (LOX IMVI melanoma) was 2.1 µM and the GI50 (U251 glioblastoma) was 0.28 µM. It also gave a TGI (U251 glioblastoma) of 1.79 µM, a GI50 (RXF 393 renal) of 0.0268 µM and a TGI (RXF 393 renal) of 0.38 µM. The TGI (SR leukemia) was 0.0149 µM, the GI50 ([…]-0 renal) was 0.332 µM and the TGI (786-0 renal) was 12.4 µM. It also gave a GI50 (SF-539 CNS) of 0.244 µM, a TGI (SF-539 CNS) of 1.07 µM and a GI50 (A549 NSCLC) of 0.413 µM. The TGI (A549 NSCLC) was 14.1 µM, the GI50 (MCF7 breast) was 0.141 µM and the TGI (MCF7 breast) was 11.6 µM. The GI50 (SNB-19 CNS) was 0.347 µM, the TGI (SNB-19 CNS) was 12 µM and the GI50 (IGROV1 ovarian) was 0.403 µM. The TGI (IGROV1 ovarian) was 12.4 µM, the GI50 (SNB-75 CNS) was 0.246 µM and the TGI (SNB-75 CNS) was 10.1 µM. It also gave a GI50 (A498 renal) of 0.307 µM, a TGI (A498 renal) of 8.83 µM and a GI50 (HS 578T breast) of 0.123 µM. It also gave a TGI (HS 578T breast) of 0.295 µM, a GI50 (SF-268 CNS) of 0.281 µM and a TGI (SF-268 CNS) of 2.7 µM. The GI50 (NCI-H226 lung) was 0.4 µM, the TGI (NCI-H226 lung) was 7.39 µM and the GI50 (CCRF-CEM leukemia) was 0.119 µM. It also gave a TGI (CCRF-CEM leukemia) of 0.246 µM, a GI50 (MALME-3M melanoma) of 0.26 µM and a TGI (MALME-3M melanoma) of 11.5 µM. For the same compound, the GI50 (SK-OV-3 ovarian) was 0.184 µM, the TGI (SK-OV-3 ovarian) was 3.71 µM and the TGI (HCC-2998 colon) was 1.26 µM. The GI50 (OVCAR-5 ovarian) was 1.62 µM, the TGI (OVCAR-5 ovarian) was 17.3 µM and the GI50 (K-562 leukemia) was 0.0215 µM. It also gave a TGI (K-562 leukemia) of 0.373 µM, a GI50 (SF-295 CNS) of 0.246 µM and a TGI (SF-295 CNS) of 1.23 µM. For the same compound, the GI50 (RPMI-8226 leukemia) was 0.154 µM, the TGI (RPMI-8226 leukemia) was 0.308 µM and the GI50 (UACC-62 melanoma) was 0.0969 µM. It also gave a TGI (UACC-62 melanoma) of 0.525 µM, a GI50 (SK-MEL-2 melanoma) of 0.256 µM and a TGI (SK-MEL-2 melanoma) of 0.497 µM. For the same compound, the GI50 (BT-549 breast) was 0.154 µM, the TGI (BT-549 breast) was 0.718 µM and the GI50 (MDA-MB-468 breast) was 0.0533 µM. For the same compound, the TGI (MDA-MB-468 breast) was 0.204 µM, the GI50 (HOP-62 NSCLC) was 0.252 µM and the TGI (HOP-62 NSCLC) was 11.8 µM. The GI50 (MDA-MB-435 melanoma) was 0.0249 µM, the TGI (MDA-MB-435 melanoma) was 0.141 µM and the GI50 (CAKI-1 renal) was 0.0712 µM. For the same compound, the TGI (CAKI-1 renal) was 12 µM, the GI50 (NCI-H322M lung) was 0.558 µM and the TGI (NCI-H322M lung) was 13.8 µM. For the same compound, the GI50 (HT29 colon) was 0.18 µM, the TGI (HT29 colon) was 0.494 µM and the GI50 (HCT-116 colon) was 0.285 µM. For the same compound, the TGI (HCT-116 colon) was 3.63 µM, the GI50 (COLO 205 colon) was 0.281 µM and the TGI (COLO 205 colon) was 7.77 µM. The GI50 (OVCAR-4 ovarian) was 2.16 µM, the TGI (OVCAR-4 ovarian) was 20.7 µM and the GI50 (NCI-H460 NSCLC) was 0.155 µM. The TGI (NCI-H460 NSCLC) was 0.63 µM, the GI50 (TK-10 renal) was 0.42 µM and the TGI (TK-10 renal) was 15.7 µM. It also gave a GI50 (MOLT-4 leukemia) of 0.052 µM, a TGI (MOLT-4 leukemia) of 0.199 µM and a GI50 (UO-31 renal) of 0.365 µM. The TGI (UO-31 renal) was 16.7 µM, the GI50 (SK-MEL-28 melanoma) was 0.311 µM and the TGI (SK-MEL-28 melanoma) was 16.6 µM. The GI50 (HCT-15 colon) was 0.0406 µM, the TGI (HCT-15 colon) was 4.94 µM and the GI50 (ACHN renal) was 0.409 µM. For the same compound, the TGI (ACHN renal) was 14.5 µM, the GI50 (EKVX NSCLC) was 0.34 µM and the TGI (EKVX NSCLC) was 13.9 µM. The GI50 (SK-MEL-5 melanoma) was 0.115 µM, the TGI (SK-MEL-5 melanoma) was 0.595 µM and the GI50 (KM12 colon) was 0.028 µM. For the same compound, the TGI (KM12 colon) was 1.99 µM, the GI50 (NCI/ADR-RES ovarian) was 0.203 µM and the TGI (NCI/ADR-RES ovarian) was 0.787 µM. It also gave a GI50 (OVCAR-3 ovarian) of 0.0219 µM, a TGI (OVCAR-3 ovarian) of 0.149 µM and a GI50 (DU-145 prostate) of 0.451 µM. The TGI (DU-145 prostate) was 2.99 µM, the GI50 (MDA-MB-231 breast) was 0.398 µM and the TGI (MDA-MB-231 breast) was 15.4 µM.
